Legend:
[1] = test system: rats with hyperuricemia; experiment: Blood uric acid level in rats with adenine combined with ethambutol-induced hyperuricemia; format: in vivo, rat; conditions: for Blood uric acid: serum, mean±SD, model group 144.43 ± 31.20
Protocol: There were 48 Male SPF grade SD rats, weighing 200-220 g, purchased from Beijing Vital River Laboratory Animal Technology Co., Ltd., license No. SCXK (Beijing) 2016-0006. The animals were housed in a barrier environment animal laboratory, with automatic temperature control (temperature 20-26° C.), relative humidity 40-70%, and full fresh air. Artificial light was adopted with a 12-hour light-dark cycle. Group experiments were started after 1 day of acclimatization. Animals were fed with standard rat pellet feed, provided by Beijing Keao Xieli Feed Co. Ltd., with purified water.
The rats were randomly divided into 6 groups of 8 rats each, which were control group, model group, typhaneoside low dose group (25 mg/kg) and typhaneoside high dose group (50 mg/kg), isorhamnetin low dose group (25 mg/kg) and isorhamnetin high dose group (50 mg/kg).
Adenine was purchased from Sigma-Aldrich (USA), and 0.5% CMC-Na was used to formulate adenine into a suspension at a concentration of 20 mg/mL, ready-to-use, with an administration volume of 5 mL/kg and a dosage of 100 mg/kg. Ethambutol hydrochloride tablets were purchased from Chengdu Jinhua Pharmaceutical Co., Ltd, and 0.5% CMC-Na was used to formulate ethambutol hydrochloride tablets into a suspension at a concentration of 50 mg/ml, ready-to-use, with an administration volume of 5 mL/kg and a dosage of 250 mg/kg. […]
Observation and detection indicators: fasting for 16 hours after the last administration, blood was collected from the abdominal aorta of rats in each group, centrifuged at 3500 rpm for 15 minutes after standing, separated and collected serum, and the content of uric acid in the serum was measured using an Automatic Chemical Analysis.
Statistical methods: data were expressed as mean±standard deviation (x±S) and analyzed by one-way ANOVA. […]

[2] = test system: rats with hyperuricemic kidney injury; experiment: Kidney function biochemical indicators (serum BUN, SCr) in rats with hyperuricemic kidney injury; format: in vivo, rat; conditions: for BUN / SCr: serum; for BUN: model group 11.87 ± 2.27; for SCr: model group 49.09 ± 9.42
Text: (§1) The establishment of the model as well as the experimental grouping and administration were the same as in Example 1.
(1) Kidney function biochemical indicators detection: the method of blood sampling and serum collection was the same as in Example 1, and an Automatic Chemical Analysis was used to detect the content of serum creatinine (SCr) by using the creatine oxidase method, and to detect the content of blood urea nitrogen (BUN) by using the urease method and the kinetic method.

[3] = test system: rats with hyperuricemia; experiment: Urate deposition in rat kidney tissues, hexamine silver staining; format: in vivo; conditions: FIG. 1, hexamine silver staining, 25 and 50 mg/kg, in words
Protocol: as §1
(§2) (2) Pathological examination of kidney tissue: anesthetize rats, dissect, and remove kidney tissue. The kidney tissues were fixed with 10% neutral formalin. After sufficient fixation, sampling, gradient dehydration, xylene transparency, paraffin embedding, and preparation of 3 μm paraffin sections were performed according to routine procedures. The kidney tissue lesions as well as urate deposition in the kidney tissues were examined by light microscopy using HE (hematoxylin & eosin) staining and hexamine silver staining, respectively.

[4] = test system: rats with hyperuricemia; experiment: Pathological examination of rat kidney tissue, HE staining; format: in vivo; conditions: FIG. 2, HE staining, in words
Protocol: as §1, §2

[5] = high dose 50 mg/kg by gavage once a day for 7 days
[6] = low dose 25 mg/kg by gavage once a day for 7 days

## COc1cc(-c2oc3cc(O)cc(O)c3c(=O)c2O)ccc1O [Isorhamnetin, isorhamnetin]
[1]; different doses (25 and 50 mg/kg), in words
  Effect on the blood uric acid level compared with the model group: did not show a significant reducing effect
[1]; [5]
  Blood uric acid: 105.74 ± 42.62 µmol/L
[1]; [6]
  Blood uric acid: 118.56 ± 26.76 µmol/L
[2]; 25 and 50 mg/kg, in words
  Serum BUN level compared with the model group: did not show significant reduction
  Serum SCr level compared with the model group: did not show significant reduction
[2]; [5]
  BUN: 8.26 ± 3.99 mmol/L
  SCr: 47.12 ± 12.00 µmol/L
[2]; [6]
  BUN: 7.90 ± 2.48 mmol/L
  SCr: 41.66 ± 5.72 µmol/L
[3]
  Deposited urate crystals in kidney tissue compared with the model group: only slightly reduced
[4]; high dose group 50 mg/kg
  Kidney tissue pathological changes: severe renal tubular dilatation and epithelial cell detachment were still observed
[4]; low dose group 25 mg/kg
  Kidney tissue pathological changes: severe renal tubular dilatation and epithelial cell detachment were still observed
